Consider 13 compounds from PubChem BioAssay AID214 (DTP/NCI, 2004).

“And” between values parts separate entries of the source, which are not always exact repeats. Equal values may be shown once. Inconclusive results are not listed.

In the assay the test system is B6C3F1 mice, colon carcinoma 38 s.c., T/C. The assay can be described thus: NCI In Vivo Anticancer Drug Screen. Data for tumor model Colon Carcinoma 38 (subcutaneous) in B6C3F1 mice. Particulars: higher = larger tumour. The procedure:
The antitumor activity of compounds was measured in mice bearing transplantable tumors. Survival or tumor size were measured and the results are expressed as the measurement made in the treated group (T) divided by the measurement made in the vehicle treated control group (C). The tumor model used in this assay is Colon Carcinoma 38 (subcutaneous) in B6C3F1 mice

The mark [1] stands for this setting: endpoint: median tumor weight (est.), dose: 200.0 mg/kg/injection, schedule: Q07DX002 (ip), vehicle: water.
[2] abbreviates: endpoint: median tumor weight (est.), dose: 50.0 mg/kg/injection, schedule: Q07DX002 (ip), vehicle: water.
The mark [3] stands for this setting: endpoint: median tumor weight (est.), dose: 100.0 mg/kg/injection, schedule: Q07DX002 (ip), vehicle: water.
The mark [4] stands for this setting: endpoint: median tumor weight (est.), dose: 50.0 mg/kg/injection, schedule: Q07DX002 (ip), vehicle: Klucel (hydroxypropylcellulose) (HPC).
Setting [5] is: endpoint: median tumor weight (est.), dose: 100.0 mg/kg/injection, schedule: Q07DX002 (ip), vehicle: Klucel (hydroxypropylcellulose) (HPC).
[6] abbreviates: endpoint: median tumor weight (est.), dose: 200.0 mg/kg/injection, schedule: Q07DX002 (ip), vehicle: Klucel (hydroxypropylcellulose) (HPC).
[7] abbreviates: endpoint: median tumor weight (est.), dose: 100.0 mg/kg/injection, schedule: Q07DX002 (ip), vehicle: saline.
Setting [8] is: endpoint: median tumor weight (est.), dose: 200.0 mg/kg/injection, schedule: Q07DX002 (ip), vehicle: saline.
Setting [9] is: endpoint: median tumor weight (est.), dose: 400.0 mg/kg/injection, schedule: Q07DX002 (ip), vehicle: Klucel (hydroxypropylcellulose) (HPC).
Where [10] appears, read: endpoint: median tumor weight (est.), dose: 800.0 mg/kg/injection, schedule: Q07DX002 (ip), vehicle: Klucel (hydroxypropylcellulose) (HPC).

With `O=C(O)Cc1cccc2c(=O)cc(-c3ccccc3)oc12`, the T/C reads like this: (endpoint: median tumor weight (est.), dose: 33.0 mg/kg/injection, schedule: Q07DX002 (ip), vehicle: suspension in saline) 67 % of control; (endpoint: median tumor weight (est.), dose: 63.0 mg/kg/injection, schedule: Q07DX002 (ip), vehicle: clinical formulation) 109 % of control; (endpoint: median tumor weight (est.), dose: 63.0 mg/kg/injection, schedule: Q07DX002 (ip), vehicle: sodium bicarbonate) 100 % of control; (endpoint: median tumor weight (est.), dose: 63.0 mg/kg/injection, schedule: Q07DX002 (iv), vehicle: clinical formulation) 114 % of control; (endpoint: median tumor weight (est.), dose: 63.0 mg/kg/injection, schedule: Q07DX002 (iv), vehicle: sodium bicarbonate) 90 % of control; (endpoint: median tumor weight (est.), dose: 66.0 mg/kg/injection, schedule: Q07DX002 (ip), vehicle: suspension in saline) 89 % of control. Also, the T/C runs as follows: (endpoint: median tumor weight (est.), dose: 84.0 mg/kg/injection, schedule: Q07DX002 (ip), vehicle: clinical formulation) 91 % of control; (endpoint: median tumor weight (est.), dose: 84.0 mg/kg/injection, schedule: Q07DX002 (ip), vehicle: sodium bicarbonate) 155 % of control; (endpoint: median tumor weight (est.), dose: 84.0 mg/kg/injection, schedule: Q07DX002 (iv), vehicle: clinical formulation) 67 % of control; (endpoint: median tumor weight (est.), dose: 84.0 mg/kg/injection, schedule: Q07DX002 (iv), vehicle: sodium bicarbonate) 82 % of control; (endpoint: median tumor weight (est.), dose: 100.0 mg/kg/injection, schedule: Q07DX002 (ip), vehicle: suspension in saline) 90 % of control; (endpoint: median tumor weight (est.), dose: 112.0 mg/kg/injection, schedule: Q07DX002 (ip), vehicle: clinical formulation) 95 % of control. Also, the T/C is, setting by setting: (endpoint: median tumor weight (est.), dose: 112.0 mg/kg/injection, schedule: Q07DX002 (iv), vehicle: clinical formulation) 74 % of control; (endpoint: median tumor weight (est.), dose: 112.0 mg/kg/injection, schedule: Q07DX002 (iv), vehicle: sodium bicarbonate) 84 % of control and 102 % of control; (endpoint: median tumor weight (est.), dose: 128.0 mg/kg/injection, schedule: Q07DX002 (ip), vehicle: water) 79 % of control; (endpoint: median tumor weight (est.), dose: 150.0 mg/kg/injection, schedule: Q07DX002 (ip), vehicle: clinical formulation) 14 % of control; (endpoint: median tumor weight (est.), dose: 150.0 mg/kg/injection, schedule: Q07DX002 (ip), vehicle: sodium bicarbonate) 101 % of control; (endpoint: median tumor weight (est.), dose: 150.0 mg/kg/injection, schedule: Q07DX002 (ip), vehicle: suspension in saline) 10 % of control. The T/C reads like this: (endpoint: median tumor weight (est.), dose: 150.0 mg/kg/injection, schedule: Q07DX002 (iv), vehicle: clinical formulation) 47 % of control; (endpoint: median tumor weight (est.), dose: 150.0 mg/kg/injection, schedule: Q07DX002 (iv), vehicle: sodium bicarbonate) 57 % of control; (endpoint: median tumor weight (est.), dose: 160.0 mg/kg/injection, schedule: Q07DX002 (ip), vehicle: water) 81 % of control; (endpoint: median tumor weight (est.), dose: 200.0 mg/kg/injection, schedule: Q07DX002 (ip), vehicle: sodium bicarbonate) 79 % of control and 87 % of control; under setting [1], 25 % of control; (endpoint: median tumor weight (est.), dose: 250.0 mg/kg/injection, schedule: Q07DX002 (ip), vehicle: water) 13 % of control. The T/C (endpoint: median tumor weight (est.), dose: 267.0 mg/kg/injection, schedule: Q07DX002 (iv), vehicle: sodium bicarbonate) was 77 % of control; the T/C (endpoint: median tumor weight (est.), dose: 356.0 mg/kg/injection, schedule: Q07DX002 (iv), vehicle: sodium bicarbonate) is 77 % of control; the T/C (endpoint: optimum tumor weight change, dose: 128.0 mg/kg/injection, schedule: Q07DX002 (ip), vehicle: water) is 78 % of control; the T/C (endpoint: optimum tumor weight change, dose: 160.0 mg/kg/injection, schedule: Q07DX002 (ip), vehicle: water) was 50 % of control; the T/C (endpoint: optimum tumor weight change, dose: 200.0 mg/kg/injection, schedule: Q07DX002 (ip), vehicle: water) is 72 % of control; the T/C (endpoint: optimum tumor weight change, dose: 250.0 mg/kg/injection, schedule: Q07DX002 (ip), vehicle: water) was 20 % of control.

Consider `Cn1c(=O)[nH]c2nncnc2c1=O`, for which the T/C reads like this: (endpoint: median tumor weight (est.), dose: 12.5 mg/kg/injection, schedule: Q07DX002 (ip), vehicle: water) 104 % of control and 112 % of control; under setting [2], 117 % of control and 119 % of control; under setting [3], 120 % of control.

Turning to `CCCCCNc1ncnc2c(C)[nH]nc12`, the T/C reads like this: under setting [4], 123 % of control; under setting [5], 102 % of control; under setting [6], 77 % of control.

Take `O=C(CCBr)N1CCN(C(=O)CCBr)CC1`: the T/C (endpoint: median tumor weight (est.), dose: 40.0 mg/kg/injection, schedule: Q07DX002 (ip), vehicle: saline with Tween-80) is 81 % of control; the T/C (endpoint: median tumor weight (est.), dose: 80.0 mg/kg/injection, schedule: Q07DX002 (ip), vehicle: saline with Tween-80) is 20 % of control and 33 % of control; the T/C (endpoint: median tumor weight (est.), dose: 320.0 mg/kg/injection, schedule: Q07DX002 (ip), vehicle: saline with Tween-80) is 6 % of control.

As to `COC(=O)NC1C(C)OC(OC2C/C=C(/C)C3C=CC4C(OC5CC(OC6CCC(OC7CC(O)C(OC8CCC(O)C(C)O8)C(C)O7)C(C)O6)C(OC(C)=O)C(C)O5)C(C)CC(C)C4C3(C)/C(O)=C3/C(=O)OC4(CC(C=O)=CC(O)C4/C=C\2C)C3=O)CC1(C)[N+](=O)[O-]` (stereo not given), the T/C (endpoint: median tumor weight (est.), dose: 2.5 mg/kg/injection, schedule: Q07DX002 (ip), vehicle: water) is 86 % of control; the T/C (endpoint: median tumor weight (est.), dose: 5.0 mg/kg/injection, schedule: Q07DX002 (ip), vehicle: water) was 96 % of control; the T/C (endpoint: median tumor weight (est.), dose: 10.0 mg/kg/injection, schedule: Q07DX002 (ip), vehicle: water) is 89 % of control; the T/C (endpoint: median tumor weight (est.), dose: 20.0 mg/kg/injection, schedule: Q07DX002 (ip), vehicle: water) was 82 % of control.

For the compound `Oc1cccc2ccccc12`, the T/C was 91 % of control under setting [2], 87 % of control under setting [3] and 76 % of control under setting [1].

For the compound `CSCS(=O)C[C@H](CO)NC(=O)/C=C/c1c(C)[nH]c(=O)[nH]c1=O` (stereo not given in full), the T/C reads like this: (endpoint: median tumor weight (est.), dose: 2.0 mg/kg/injection, schedule: Q07DX002 (ip), vehicle: saline) 74 % of control; (endpoint: median tumor weight (est.), dose: 4.0 mg/kg/injection, schedule: Q07DX002 (ip), vehicle: saline) 66 % of control.

For the compound `CN(CCN(C)C(=O)CCOS(C)(=O)=O)C(=O)CCOS(C)(=O)=O`, the T/C (endpoint: median tumor weight (est.), dose: 12.5 mg/kg/injection, schedule: Q07DX002 (ip), vehicle: saline) is 121 % of control; the T/C (endpoint: median tumor weight (est.), dose: 25.0 mg/kg/injection, schedule: Q07DX002 (ip), vehicle: saline) is 92 % of control; the T/C (endpoint: median tumor weight (est.), dose: 50.0 mg/kg/injection, schedule: Q07DX002 (ip), vehicle: saline) was 51 % of control; the T/C under setting [7] is 51 % of control; the T/C under setting [8] is 12 % of control.

Turning to `OC(CBr)C(O)C(O)C(O)CBr` (stereo not given), the T/C is, setting by setting: (endpoint: median tumor weight (est.), dose: 25.0 mg/kg/injection, schedule: Q07DX002 (ip), vehicle: Klucel (hydroxypropylcellulose) (HPC)) 83 % of control; under setting [4], 83 % of control.

`CC(CN1CC(=O)NC(=O)C1)N1CC(=O)NC(=O)C1` (stereo not given): the T/C was 82 % of control under setting [5], 40 % of control under setting [6], 2 % of control under setting [9] and 1 % of control under setting [10].

As to `O=C(COc1cccc2c(=O)cc(-c3ccccc3)oc12)OCCN1CCOCC1`, the T/C is 81 % of control under setting [7] and 43 % of control under setting [8].

With `COC1C(CO)OC(n2cnc3c(=S)nc(N)[nH]c32)C1O` (stereo not given), the T/C is, setting by setting: under setting [5], 110 % of control; under setting [6], 46 % of control; under setting [9], 51 % of control; under setting [10], 13 % of control.

Regarding `CCC(/C=C/C1OC(=O)C=CC1C)=C\C(C)C/C=C/C(C)=C/C(C)C(=O)C(C)C(O)C(C)C/C(C)=C/C(=O)O` (stereo not given), the T/C by setting is: (endpoint: median tumor weight (est.), dose: 100.0 micrograms/kg/injection, schedule: Q07DX002 (ip), vehicle: other) 56 % of control; (endpoint: median tumor weight (est.), dose: 200.0 micrograms/kg/injection, schedule: Q07DX002 (ip), vehicle: other) 105 % of control; (endpoint: median tumor weight (est.), dose: 400.0 micrograms/kg/injection, schedule: Q07DX002 (ip), vehicle: other) 85 % of control; (endpoint: median tumor weight (est.), dose: 800.0 micrograms/kg/injection, schedule: Q07DX002 (ip), vehicle: other) 102 % of control; (endpoint: median tumor weight (est.), dose: 1600.0 micrograms/kg/injection, schedule: Q07DX002 (ip), vehicle: other) 98 % of control.
